In patent publication US10369187B2, “Peptide regulators of JNK family kinases” (Vanderbilt University, priority 2017, dated 2019):

Test system: ASK1-MKK4/7-JNK3 signaling cascade
Assay: In cell JNK3 activation assay (co-expression with HA-ASK1 and HA-JNK3α2, phospho-JNK Western blot)
Type: cell-based, African green monkey
Conditions: for JNK3 phosphorylation in cells, YFP fusions: YFP fusions co-expressed with JNK3 and ASK1 in COS7 cells
Experimental: COS-7 African green monkey cells were maintained in DMEM supplemented with 10% heat-inactivated FBS (Invitrogen), penicillin, and streptomycin at 37° C. in a humidified incubator with 5% CO2. The cells were plated at 80-90% confluence and transfected using Lipofectamine 2000 (Invitrogen) according to the manufacturer's instructions. Cells were used 48 h post-transfection and serum-starved overnight before experiments.
COS-7 cells were incubated with phosphatase inhibitors (50 mM NaF and 10 mM Na3VO4) in serum-free medium for 15 min at 37° C.; washed with cold PBS; and lysed with SDS lysis buffer containing 1% SDS, 10 mM Tris (pH7.4), 10 mM NaF, 100 μM Na3VO4, 2 mM EDTA, 2 mM benzamidine and 1 mM PMSF. JNKs activity was assayed by Western blotting using an antibody specific for phosphorylated JNK to detect phosphorylated (active) JNKs^17,20,23. Whole cell lysates were boiled for 5 min and centrifuged at 10,000×g for 10 min, and the supernatants were used for Western blotting. Protein was measured using the Bio-Rad Coomassie Blue assay. The proteins were resolved on 8% SD S-PAGE and transferred to PVDF membrane (Millipore, Bedford, Mass.). Blots were incubated with the primary antibodies (Cell Signaling Technology, Inc) anti-phospho-JNK, anti-JNK, anti-HA (6E2) (1:1000 to 1:5000), followed by appropriate HRP-conjugated secondary antibodies. Protein bands were detected by enhanced chemiluminescence (ECL, Pierce), followed by exposure to x-ray film. To quantify phospho-JNKs, serial dilutions of anisomycin (1 μg/ml)-stimulated HEK-A cell lysates were used to ensure that all samples were in linear range. The values for these proteins are expressed in arbitrary units.
The JNK3 activation was next tested in cells (See FIG. 7). COS7 cells were transfected with HA-ASK1, HA-JNK3α2, and YFP-arrestin constructs to measure in cell JNK3α2 activation. Phospho-JNK3 is shown as the uppermost band in the Western analysis, and was analyzed by densitometric quantification using Quantity One software (quantification in bottom panel). […] The data were statistically analyzed by ANOVA with protein as the main factor. Significance of the difference from control (p values) is indicated.
In Cell JNK3 Activation Assay COS7 African green monkey cells were sustained in DMEM solution containing 10% heat-inactivated FBS (Invitrogen), penicillin, and streptomycin at 37° C. and 5% CO2. Cells were transfected at 90-100% confluency in 6-well plates with pcDNA3-HA-ASK1 (0.4 ug), pcDNA3-HA-JNK3α2 (0.2 ug), and pcDNA3-Venus arrestin constructs (0.2-0.6 ug) at a 1:2 ratio of DNA:Lipofectamine 2000 (Invitrogen). At 48 hrs post-transfection, the cells were incubated with phosphatase inhibitors (20 mM NaF and 1 mM Na3VO4) in PBS for 15 mins, washed twice with cold PBS, and lysed using 50 mM Tris (pH 7.8), 2 mM EDTA, 250 mM NaCl, 10% Glycerol, 0.5% NP-40, 2 mM benzamide, and 1 mM PMSF. Protein concentration was measured using the Bio-Rad Quick Start™ Bovine Serum Albumin (BSA) Standard Set. The proteins were subjected to 10% SDS-PAGE and transferred to PVDF membrane (Millipore, Bedford, Mass.). Membranes were incubated with respective primary antibodies (Cell Signaling Technology, Inc.) anti-ASK1 (#3762S), anti-phospho-JNK (#9251), anti-SAPK/JNK (#9252P), anti-GST (#2625), or anti-HA (#3724), followed by the appropriate HRP-conjugated secondary antibodies. Bands were detected by x-ray film using enhanced chemiluminescence (ECL, Pierce) and quantification was done using the software Quantity One (BioRad).

MGDK-GTRVFKKASPNGKLTVYLGK (MGDKGTRVFKKASPNGKLTVYLGK; N-terminal MGDK; bovine) [B1A, homologous N-terminal peptide from arrestin-2, negative control]
JNK3 phosphorylation in cells, YFP fusions: does not function as a scaffold of ASK1-MKK4/7-JNK3 cascade in cells

MGEKPGTRVFKKSSPNCKLTVYLGK (bovine) [T1A, first 25 residues of arrestin-3]
in cell JNK3α2 activation (phospho-JNK3 densitometry) (Example 2, YFP/Venus constructs with HA-ASK1, HA-JNK3α2 in COS7 cells): facilitates JNK3 activation
effect on JNK3 phosphorylation compared with full-length arrestin-3 (YFP fusion co-expressed with JNK3 and ASK1 in COS7 cells): greater than that of full-length arrestin-3
JNK3 phosphorylation in cells, YFP fusions: also active
dose-response curve of JNK3 phosphorylation (varying amounts of YFP-T1A with ASK1 and JNK3): biphasic, with a clear optimum
